Our source for the ED50 values is patent EP0511791A2, “Pyrrolopyridine derivatives as Angiotensin inhibitors” (ZENECA LIMITED, priority 1991, dated 1992).

This assay relates to angiotensin II-induced pressor responses. The assay is described as follows: Test C: antagonism of angiotensin II-induced pressor responses in rats. In kind it is in vivo. The conditions noted are these: Rattus norvegicus, iv, i.v. administration. How it is done:
Test C: This in vivo test involves using terminally-anaesthetised or conscious rats in which an arterial catheter has been implanted under anaesthesia for the measurement of changes in blood pressure. The All antagonistic effects of the test compound following oral or parenteral administration, are assessed against angiotensin II-induced pressor responses. To ensure that the effect is specific, the effect of the test compound on vasopressin-induced pressor responses may also be determined in the same preparation.

The ED50 is the midpoint of the dose-response relation. Higher therefore signals a need for a large dose. As for `Cc1cc2c(cc(C)n2Cc2ccc(-c3ccccc3-c3nnn[nH]3)cc2)c(Cl)n1.Cl` [Example 2, 4-chloro-2,6-dimethyl-1-[(2'-(1H-tetrazol-5-yl)biphenyl-4-yl)methyl]-1H-pyrrolo[3,2-c]pyridine hydrochloride], the median effective dose (ED50) worked out at 0.4 mg/kg.
